# Laboratory results: patent US9975853B2, “Tetrahydroisoquinolinone derivatives and their use in the inhibition of the HSP70 protein” (Julius-Maximilians-Universitaet Wuerzburg, priority 2014, dated 2018)
# Entries after “also recorded” stand apart in the source; their conditions may differ.
# How the values were obtained:
# HSP72 = target: T1, HSP72 (Homo sapiens, UniProt P0DMV8); test: Western blot analysis of HSP72 expression in INA-6 cells; type: cell-based; details: INA-6, 0.6 μM, with Z-VAD-FMK 50 μM
# T1 construct: endogenous in cells; host or cells: INA-6 multiple myeloma cells
# T1 sequence (P0DMV8 whole entry): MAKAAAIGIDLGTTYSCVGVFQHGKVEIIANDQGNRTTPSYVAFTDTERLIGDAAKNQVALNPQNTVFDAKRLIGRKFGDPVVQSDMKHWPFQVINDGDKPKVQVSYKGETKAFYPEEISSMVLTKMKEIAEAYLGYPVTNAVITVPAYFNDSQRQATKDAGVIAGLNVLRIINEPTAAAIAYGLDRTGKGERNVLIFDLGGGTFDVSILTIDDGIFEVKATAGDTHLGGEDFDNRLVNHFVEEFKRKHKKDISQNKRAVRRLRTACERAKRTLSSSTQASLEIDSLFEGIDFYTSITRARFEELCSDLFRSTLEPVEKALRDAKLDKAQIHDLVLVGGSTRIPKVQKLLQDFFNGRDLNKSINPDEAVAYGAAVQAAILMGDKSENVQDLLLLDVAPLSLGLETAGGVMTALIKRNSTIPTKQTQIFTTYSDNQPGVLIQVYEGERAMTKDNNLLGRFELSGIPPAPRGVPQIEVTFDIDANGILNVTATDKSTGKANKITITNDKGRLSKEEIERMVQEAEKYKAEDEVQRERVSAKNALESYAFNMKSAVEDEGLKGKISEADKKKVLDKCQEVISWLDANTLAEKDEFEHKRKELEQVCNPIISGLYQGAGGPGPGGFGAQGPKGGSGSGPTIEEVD
# Procedure: (§1) Western Blot Analysis. Protein expression levels were determined with Western blotting procedures (M. Chatterjee, et al., Blood 2002, 100, 3311-3318). Following separation by SDS-PAGE, proteins were transferred onto nitrocellulose membranes (Schleicher & Schuell, Dassel, Germany) and stained with antibodies against Hsp72, Hsp73, Hsp90 (all from Enzo Life Science, Lörrach, Germany), AIF, lamin A, caspases 9 and 3, PARP (all from Santa Cruz, Heidelberg, Germany). An anti-α tubulin antibody (Sigma, Deisenhofen, Germany) was employed to assess equal loading. Secondary antibodies used were anti-rat (Enzo Life Science), anti-rabbit and anti-mouse (both from GE Healthcare, Little Chalfont, UK). […] The heat shock proteins HSP72 and HSP73 critically interact with HSP90 in order to mediate an essential chaperone function for a multitude of proteins including various signaling intermediates. According to an established HSP72/73-dependent client protein signature and its role for survival in MM, the proposed anti-HSP72/73 effect of trans-7b in the INA-6 multiple myeloma (MM) cell line model was evaluated. […] Lysates were cleared by centrifugation, measured by quantitative protein assay (Bio-Rad, München, Germany) and subjected to SDS gel electrophoresis. […]
# [1] = test system: apoptosis-inducing factor (AIF); test: Apoptosis assay: nuclear translocation of AIF in INA-6 cells (Western blot); type: cell-based, human; details: INA-6, 0.6 μM, 8 hours, nuclear pellets
# Procedure: Apoptosis Assays. Hsp70-dependent prevention of apoptosis was investigated by analyses of the apoptosis-inducing factors (AIF) and of the caspases 9 and 3 in INA-6 cells. INA-6 cells were treated with 0.6 μM of compound trans-7b for 8 hours prior to analyze nuclear translocation of AIF. Staining of the nuclear protein lamin A was used as a loading control. […] Analysis of cleavage of the bona fide caspase substrate PARP served as a control for caspase activation. Co-treatment with the pan-caspase inhibitor Z-VAD-FMK (50 μM) was employed as another specificity control.
# Western Blot Analysis. Protein expression levels were determined with Western blotting procedures (M. Chatterjee, et al., Blood 2002, 100, 3311-3318). Following separation by SDS-PAGE, proteins were transferred onto nitrocellulose membranes (Schleicher & Schuell, Dassel, Germany) and stained with antibodies against Hsp72, Hsp73, Hsp90 (all from Enzo Life Science, Lörrach, Germany), AIF, lamin A, caspases 9 and 3, PARP (all from Santa Cruz, Heidelberg, Germany). […] According to an established HSP72/73-dependent client protein signature and its role for survival in MM, the proposed anti-HSP72/73 effect of trans-7b in the INA-6 multiple myeloma (MM) cell line model was evaluated. […] Lysates were cleared by centrifugation, measured by quantitative protein assay (Bio-Rad, München, Germany) and subjected to SDS gel electrophoresis. […]
# HSP73 = target: T2, HSP73 (Homo sapiens, UniProt P11142); test: Western blot analysis of HSP73 expression in INA-6 cells; type: cell-based; details: INA-6, 0.6 μM, with Z-VAD-FMK 50 μM
# T2 construct: endogenous in cells; host or cells: INA-6 multiple myeloma cells
# T2 sequence (P11142 whole entry): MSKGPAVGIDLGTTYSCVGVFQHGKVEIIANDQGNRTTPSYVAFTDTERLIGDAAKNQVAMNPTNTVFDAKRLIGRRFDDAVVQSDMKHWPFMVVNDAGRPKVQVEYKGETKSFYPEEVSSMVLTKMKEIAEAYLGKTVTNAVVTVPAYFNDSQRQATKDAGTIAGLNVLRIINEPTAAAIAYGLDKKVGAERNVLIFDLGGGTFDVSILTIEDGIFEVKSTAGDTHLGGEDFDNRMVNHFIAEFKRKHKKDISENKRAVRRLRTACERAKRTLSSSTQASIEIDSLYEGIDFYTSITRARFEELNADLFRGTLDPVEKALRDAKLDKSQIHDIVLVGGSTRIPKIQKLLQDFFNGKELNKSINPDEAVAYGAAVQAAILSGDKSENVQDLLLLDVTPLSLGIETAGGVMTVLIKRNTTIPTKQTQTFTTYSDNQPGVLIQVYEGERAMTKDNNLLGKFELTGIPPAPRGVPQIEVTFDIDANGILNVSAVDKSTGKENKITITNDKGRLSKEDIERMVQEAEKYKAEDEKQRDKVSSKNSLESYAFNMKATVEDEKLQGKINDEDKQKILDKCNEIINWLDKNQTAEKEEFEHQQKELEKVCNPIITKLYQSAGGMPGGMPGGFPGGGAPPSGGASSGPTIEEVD
# Procedure: as §1
# INA-6 cells = test: Viability of INA-6 cells under concomitant treatment with HSP90 inhibitor NVP-AUY922; type: cell-based, human; details: AUY922 7.5 nM plus trans-7b 3.5 μM, sublethal concentrations
# Procedure: The heat shock protein HSP90, which critically cooperates with HSP72 and HSP73 to mediate a chaperone function for a multitude of proteins, is regarded as a reasonable therapeutic target in MM. […] Therefore, potential effects of a concomitant treatment of trans-7b with the HSP90 inhibitor NVP-AUY922 on viability of INA-6 cells were analyzed. INA-6 cells were incubated either with DMSO (as a solvent control), sublethal concentrations of AUY922 (7.5 nM) or trans-7b (3.5 μM) or with a combination of both. Viability was measured by Annexin V-FITC/propidium iodide double staining (BenderMedSystems, Vienna, Austria) according to the manufacturer's instructions. Cells were washed in PBS, incubated for 15 minutes in 100 ml binding buffer (10 mM HEPES/NaOH, pH 7.4, 140 mM NaCl, 2.5 mM CaCl2) containing 2.5 mL annexin V-FITC mix and 1 mg/ml PI and analyzed by flow cytometry (FACSCalibur/CELLQuest; Becton Dickinson, Heidelberg, Germany). Whereas early apoptosis is characterized by positive annexin V-FITC staining reaction, cells in a late apoptotic stage lose their membrane integrity and additionally incorporate PI. […] Raw data of three independent measurements were set in relation to their respective DMSO controls, and means and standard deviations were calculated using the Graphpad Prism software (Graphpad, La Jolla, USA).
compound,measurement,setting,value
"COc1ccc(C2C(C(=O)Nc3cccc(C)n3)c3ccccc3C(=O)N2c2ccccc2)cc1 (stereo not drawn) [trans-7b, trans-3-(4-Methoxyphenyl)-N-(6-methylpyridin-2-yl)-1-oxo-2-phenyl-1,2,3,4-tetrahydroisoquinoline-4-carboxamide]",HSP72 constitutive expression level,HSP72,decreases; also recorded: reduced
same,nuclear translocation of activated AIF,[1],shifting from the cytosol to the nucleus
same,HSP73 constitutive expression level,HSP73,decreases; also recorded: reduced
same,effect on the apoptotic effect of the HSP90 inhibitor NVP-AUY922 (viability),INA-6 cells,strongly enhanced
